Source: PubChem BioAssay (NCI)
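1) Cells in 96-well plates. 2) Compound, 48 h, 5 concentrations. 3) Linear interpolation between surrounding doses. 4) Unreached endpoint = highest concentration. At the GI50, growth is halved. Definition used: TGI = concentration required for complete inhibition of growth.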

Experiments:
Assay in all cases: NCI anticancer screen, dose series, 48 h
MDA-MB-468 breast = test system: MDA-MB-468 breast
NCI-H460 lung = test system: NCI-H460 lung
MOLT-4 leukemia = test system: MOLT-4 leukemia
UO-31 renal = test system: UO-31 renal
T-47D breast = test system: T-47D breast
SW-620 colon = test system: SW-620 colon
KM12 colon = test system: KM12 colon
MDA-MB-435 = test system: MDA-MB-435
HCC-2998 colon = test system: HCC-2998 colon
M14 melanoma = test system: M14 melanoma
DU-145 prostate = test system: DU-145 prostate
SR leukemia = test system: SR leukemia
COLO 205 colon = test system: COLO 205 colon
A498 renal = test system: A498 renal
786-0 renal = test system: 786-0 renal
HCT-15 colon = test system: HCT-15 colon
SNB-19 CNS = test system: SNB-19 CNS
MALME-3M melanoma = test system: MALME-3M melanoma
SK-MEL-5 melanoma = test system: SK-MEL-5 melanoma
K-562 leukemia = test system: K-562 leukemia
UACC-62 melanoma = test system: UACC-62 melanoma
EKVX NSCLC = test system: EKVX NSCLC
SK-MEL-28 melanoma = test system: SK-MEL-28 melanoma
PC-3 prostate = test system: PC-3 prostate
CAKI-1 renal = test system: CAKI-1 renal
HOP-62 NSCLC = test system: HOP-62 NSCLC
HCT-116 colon = test system: HCT-116 colon
OVCAR-4 ovarian = test system: OVCAR-4 ovarian
SF-539 CNS = test system: SF-539 CNS
SF-295 CNS = test system: SF-295 CNS
TK-10 renal = test system: TK-10 renal
NCI/ADR-RES ovarian = test system: NCI/ADR-RES ovarian
LOX IMVI melanoma = test system: LOX IMVI melanoma
OVCAR-3 ovarian = test system: OVCAR-3 ovarian
OVCAR-5 ovarian = test system: OVCAR-5 ovarian
HS 578T breast = test system: HS 578T breast
HL-60(TB) leukemia = test system: HL-60(TB) leukemia
MCF7 breast = test system: MCF7 breast
A549 NSCLC = test system: A549 NSCLC
IGROV1 ovarian = test system: IGROV1 ovarian
RXF 393 renal = test system: RXF 393 renal
U251 CNS = test system: U251 CNS
SF-268 CNS = test system: SF-268 CNS
SK-MEL-2 melanoma = test system: SK-MEL-2 melanoma
HT29 colon = test system: HT29 colon
HOP-92 NSCLC = test system: HOP-92 NSCLC
MDA-MB-231 breast = test system: MDA-MB-231 breast
SK-OV-3 ovarian = test system: SK-OV-3 ovarian
ACHN renal = test system: ACHN renal
NCI-H522 lung = test system: NCI-H522 lung
UACC-257 melanoma = test system: UACC-257 melanoma
RPMI-8226 leukemia = test system: RPMI-8226 leukemia
SN12C renal = test system: SN12C renal
OVCAR-8 ovarian = test system: OVCAR-8 ovarian
SNB-75 CNS = test system: SNB-75 CNS
CCRF-CEM leukemia = test system: CCRF-CEM leukemia
NCI-H226 lung = test system: NCI-H226 lung
BT-549 breast = test system: BT-549 breast
NCI-H23 lung = test system: NCI-H23 lung

## O=C(CSc1nnc(-c2ccc(-c3nc4ccc(Cl)cc4[nH]3)cc2)o1)Nc1ccc(Cl)cc1
MDA-MB-468 breast
  GI50: 2.37 µM
  TGI: 8.01 µM
NCI-H460 lung
  GI50: 1.96 µM
  TGI: 4.29 µM
MOLT-4 leukemia
  GI50: 2.81 µM
  TGI: 14.3 µM
UO-31 renal
  GI50: 3.59 µM
  TGI: 15.8 µM
T-47D breast
  GI50: 2.8 µM
  TGI: 19.8 µM
SW-620 colon
  GI50: 2.94 µM
  TGI: 14.1 µM
KM12 colon
  GI50: 4.05 µM
  TGI: 18.5 µM
MDA-MB-435
  GI50: 3.07 µM
  TGI: 10.6 µM
HCC-2998 colon
  GI50: 11.2 µM
  TGI: 27.3 µM
M14 melanoma
  GI50: 3.05 µM
  TGI: 11 µM
DU-145 prostate
  GI50: 4.14 µM
  TGI: 15.6 µM
SR leukemia
  GI50: 1.85 µM
  TGI: 6.63 µM
COLO 205 colon
  GI50: 11.8 µM
  TGI: 36 µM
A498 renal
  GI50: 16.2 µM
  TGI: 30.6 µM
786-0 renal
  GI50: 2.21 µM
  TGI: 5.57 µM
HCT-15 colon
  GI50: 2.41 µM
  TGI: 11.6 µM
SNB-19 CNS
  GI50: 3.45 µM
  TGI: 12.3 µM
MALME-3M melanoma
  GI50: 1.85 µM
  TGI: 4.31 µM
SK-MEL-5 melanoma
  GI50: 2.92 µM
  TGI: 11.2 µM
K-562 leukemia
  GI50: 2.19 µM
  TGI: 11.1 µM
UACC-62 melanoma
  GI50: 1.7 µM
  TGI: 3.86 µM
EKVX NSCLC
  GI50: 2.7 µM
  TGI: 12.7 µM
SK-MEL-28 melanoma
  GI50: 1.53 µM
  TGI: 3.33 µM
PC-3 prostate
  GI50: 1.9 µM
  TGI: 5.37 µM
CAKI-1 renal
  GI50: 2.43 µM
  TGI: 8.47 µM
HOP-62 NSCLC
  GI50: 1.62 µM
  TGI: 3.69 µM
HCT-116 colon
  GI50: 2.92 µM
  TGI: 11.8 µM
OVCAR-4 ovarian
  GI50: 4.48 µM
  TGI: 19.3 µM
SF-539 CNS
  GI50: 1.67 µM
  TGI: 3.15 µM
SF-295 CNS
  GI50: 1.99 µM
  TGI: 5.23 µM
TK-10 renal
  GI50: 15.6 µM
  TGI: 32.2 µM
NCI/ADR-RES ovarian
  GI50: 4.01 µM
  TGI: 18.9 µM
LOX IMVI melanoma
  GI50: 1.4 µM
  TGI: 2.8 µM
OVCAR-3 ovarian
  GI50: 3.18 µM
  TGI: 10.6 µM
OVCAR-5 ovarian
  GI50: 3.11 µM
  TGI: 14.6 µM
HS 578T breast
  GI50: 2.27 µM
  TGI: 7.65 µM
HL-60(TB) leukemia
  GI50: 2.82 µM
  TGI: 12.5 µM
MCF7 breast
  GI50: 2.82 µM
  TGI: 13.3 µM
A549 NSCLC
  GI50: 1.8 µM
  TGI: 3.97 µM
IGROV1 ovarian
  GI50: 4.66 µM
  TGI: 18.4 µM
RXF 393 renal
  GI50: 1.93 µM
  TGI: 5 µM
U251 CNS
  GI50: 1.96 µM
  TGI: 4.07 µM
SF-268 CNS
  GI50: 3.04 µM
  TGI: 11.7 µM
SK-MEL-2 melanoma
  GI50: 3.02 µM
  TGI: 13.1 µM
HT29 colon
  GI50: 3.2 µM
  TGI: 10.9 µM
HOP-92 NSCLC
  GI50: 2.35 µM
  TGI: 9.26 µM
MDA-MB-231 breast
  GI50: 1.63 µM
  TGI: 3.49 µM
SK-OV-3 ovarian
  GI50: 5.93 µM
  TGI: 20.8 µM
ACHN renal
  GI50: 1.91 µM
  TGI: 4.9 µM
NCI-H522 lung
  GI50: 1.85 µM
  TGI: 5.47 µM
UACC-257 melanoma
  GI50: 2.62 µM
  TGI: 10 µM
RPMI-8226 leukemia
  GI50: 3.99 µM
  TGI: 17.4 µM
SN12C renal
  GI50: 1.72 µM
  TGI: 4.03 µM
OVCAR-8 ovarian
  GI50: 2.04 µM
  TGI: 5.16 µM
SNB-75 CNS
  GI50: 2.33 µM
  TGI: 8.66 µM
CCRF-CEM leukemia
  GI50: 2.59 µM
  TGI: 11 µM
NCI-H226 lung
  GI50: 1.6 µM
  TGI: 4.36 µM
BT-549 breast
  GI50: 2.15 µM
  TGI: 6.23 µM
NCI-H23 lung
  GI50: 1.99 µM
  TGI: 4.74 µM
